From PubChem BioAssay (NCI) come the findings set out here.

The structures appear in SMILES notation. “And” between values parts separate entries of the source, which are not always exact repeats. Equal entries are not always repeated.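 Five compound concentrations were applied to cells in 96-well plates for 48 hours; endpoints were derived by simple linear interpolation of the resulting dose-response curve. The concentration for 50% growth inhibition is given as GI50. TGI: total growth inhibition.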

The experiment concerns MDA-MB-468 breast. Put plainly: inhibition of tumour cell growth, NCI panel, 48 h.
Take `CCc1c(C)nc2sc3c(N)ncnc3c2c1C`: the GI50 was greater than 25 µM and the TGI is greater than 25 µM.
`O=C(Nc1ccccc1OC(=O)c1ccccc1)c1ccccc1`: the GI50 is 5.64 µM and the TGI was greater than 100 µM.
As for `COc1cc(C(=O)Nc2cc(O)c(CC=C(C)C)c(O)c2)cc2c1O[C@]1(C)CC[C@@H](O)C(C)(C)[C@H]1C2`, the GI50 is 0.648 µM and the TGI is 32.9 µM.
On to `Nc1n[nH]c2ccc([C@@H]3Nc4cc5c(cc4[C@H]4C6CCC(C6)[C@@H]34)C(=O)NC5)cc12` (stereo not given in full), for which the GI50 is 0.323 µM and the TGI is greater than 100 µM.
Regarding `COc1ccc2c(-c3ccnc(Nc4cccc(OC(F)(F)F)c4)n3)cnn2n1`, the GI50 was 1.26 µM and the TGI was found to be 4.69 µM.
As for `Oc1cccc2c1NCCC2`, the GI50 is 1.83 µM and the TGI was 8.49 µM.
Turning to `COc1ccc(/C=C(\C)[N+](=O)[O-])cc1OC`, the GI50 is 1.48 µM and the TGI was 3.05 µM.
For the compound `C[n+]1c2ccccc2nc2c(N)cc(N)cc21`, the GI50 was 1.18 µM and the TGI is 4.98 µM.
As to `Cc1ccncc1C(N)=O`, the GI50 is greater than 100 µM and the TGI is greater than 100 µM.
On to `N/C(=N\OC(=O)c1ccccc1)C(Cc1ccccc1)C(=O)NOC(=O)c1ccccc1` (stereo not given), for which the GI50 was 4.1 µM and the TGI is 17.5 µM.
As to `C[C@@H]1Cc2cc(O)ccc2[C@H]2CC[C@]3(C)/C(=C/COCCN(C)C)CC[C@H]3[C@H]12` (tested in a mixture with another compound), the GI50 is 1.07 µM and the TGI was found to be 3.2 µM.
The matching figures for `Oc1c(-c2cc(C(F)(F)F)[nH]n2)cc(Cl)c(OCc2ccc(Cl)cc2)c1-c1ccc(Cl)c(C(F)(F)F)c1`: 0.208 µM and 1.66 µM.
As for `O=C(CSc1nnc(-c2ccc(Cl)cc2)n1-c1ccccc1)Nc1ccc(Cl)cc1`, the GI50 is 2.83 µM and the TGI stood at 8.27 µM.
`O=c1c2cc(F)ccc2sc2c(NCCCNCCO)nc3ccccc3c12`: the GI50 was 1.09 µM and the TGI is 2.43 µM.
For `COc1cc(-c2nn(-c3cccc(NC(=O)CCN4CCN(Cc5ccccc5)CC4)c3)cc2-c2ccncc2)ccc1Cl` the same measures were 0.433 µM and 16.2 µM.
As to `COc1ccc(Nc2ccnc(N3CCN(c4ccnc5cc(Cl)ccc45)CC3)n2)cc1`, the GI50 was 1.5 µM and the TGI was greater than 100 µM.
For `CCOC(=O)c1c(NC(=O)c2cccc(C(F)(F)F)c2)sc2c3c(ccc12)OCN(C)C3`, the GI50 is 1.52 µM and the TGI is 2.97 µM.
For `CN1CCN(CCCCCN=c2cc3c(=O)n(CCCCCN4CCN(C)CC4)c(=O)c4c(NCCCCCN5CCN(C)CC5)cc5c(O)n(CCCCCN6CCN(C)CC6)c(=O)c2c5c4-3)CC1` the same measures were 2.26 µM and 6.31 µM.
In the case of `COc1ccc(Nc2ccc([N+](=O)[O-])cc2[N+](=O)[O-])cc1CN(CCCl)CCCl`, the GI50 was 1.99 µM and the TGI was determined as 5.09 µM.
For the compound `FC(F)(F)c1cccc(-c2nn3ncccc3c2-c2ccnc(Nc3ccc4c(c3)OCCO4)n2)c1`, the GI50 was 3.97 µM and the TGI came out at 17.9 µM.
For `CC1c2ccccc2CCN1c1ccc(CO)c(Cl)c1` (stereo not given) the same measures were 0.0151 µM and 0.0393 µM.
With `COc1cc(C(=O)c2cc(C)c3[nH]c4ccc(O)cc4c3c2C)cc(OC)c1OC`, the GI50 was less than 0.0157 µM and the TGI was 1.06 µM.
Turning to `CN1CCc2nc3sc(C(N)=O)c(N)c3c(-c3cccs3)c2C1`, the GI50 is 1.75 µM and the TGI came to 4.86 µM.
`c1ccc(N=C2c3ccsc3C(=Nc3ccccc3)c3ccsc32)cc1`: the GI50 was 1.78 µM and the TGI stood at 3.61 µM.
Consider `COc1ccc(/C=C(/C)[N+](=O)[O-])cc1OC`, for which the GI50 is 1.34 µM and 1.15 µM; the TGI is 2.77 µM and 2.53 µM.
Consider `COc1cc(/C=C/c2ccc3c(Br)cc(Br)c(O)c3n2)ccc1O`, for which the GI50 was 1.38 µM and the TGI is 5.29 µM.
For `O=C(CN1N=C(c2ccc(F)cc2)CCC1=O)Nc1nc2ccccc2s1` the same measures were 21.1 µM and 85.9 µM.
The matching figures for `C=CCc1cc(Nc2c3ccc(Cl)cc3nc3ccc(OC)cc23)cc(CN(CC)CC)c1O`: 0.546 µM and 3.24 µM.
`COc1cccc(Oc2ccccc2NC(=O)CNC(=O)c2cccc3ccccc23)c1`: the GI50 is 0.331 µM and the TGI was greater than 25 µM.
The matching figures for `CC(C)C[C@H](NC(=O)CCn1ccc2ccccc2c1=O)B(O)O`: 1.38 µM and 7.08 µM.
As to `O=C1C(OCCOc2ccccc2)=C(OCCOc2ccccc2)C(=O)c2ccccc21`, the GI50 is 9.92 µM and the TGI was greater than 100 µM.
For `O=Nc1c(-c2c(O)[nH]c3ncccc23)[nH]c2ccccc12` the same measures were 4.12 µM and greater than 100 µM.
For `COc1cc2c(cc1F)C(c1ccccc1Cl)=Nc1c(n[nH]c1C)N2` the same measures were 0.342 µM and 3.73 µM.
With `N#CCCNc1nonc1-c1nc2ccccc2n1CC(=O)c1ccc(NC(=O)[C@@H](N)CCCCN)cc1`, the GI50 is 0.0236 µM.
Consider `Cc1[nH]c(-c2cc(N)ccc2Cl)c2c1C(=O)CCCC2`, for which the GI50 is 1.9 µM and the TGI came out at 9.46 µM.
Turning to `CCN1C(=O)N(CC)C2C1NN=c1s/c(=C\c3ccc(F)cc3)c(=O)n12` (stereo not given), the GI50 is 0.168 µM and the TGI was greater than 100 µM.
With `CC1C=CC(OC(=O)C(C)(O)CCC(O)(C(=O)OC2CC(O)C(C(C)C)CC2(C)O)C(C)C)(C(C)C)CC1` (stereo not given), the GI50 is 0.36 µM and the TGI worked out at 1.22 µM.
With `COc1ccc2c(c1)C(=O)c1c-2c(OCCN(C)C)nc2ccccc12`, the GI50 was 2.76 µM and the TGI stood at 11.3 µM.
